O=C1Nc2ccccc2C1=O
Conditions	solubility (mole fraction)
in PEG-400, 298.15 K	0.0985
in PEG-400, 308.15 K	0.109
in PEG-400, 318.15 K	0.121
in PEG-400, 328.15 K	0.132
in PEG-400, 338.15 K	0.144

solubility (mole fraction)
Conditions	in ethanol	in ethyl acetate	in ethylene glycol	in isopropanol	in propylene glycol	in sec-butanol	in transcutol	in water
298.15 K	0.00409	0.00568	0.00754	0.00419	0.00673	0.00516	0.523	5.14e-05
308.15 K	0.00506	0.00738	0.0092	0.00545	0.00827	0.00596	0.539	8.08e-05
318.15 K	0.0065	0.00926	0.011	0.00694	0.01	0.0071	0.561	0.000113
328.15 K	0.00755	0.0111	0.0127	0.00867	0.0112	0.00814	0.581	0.000152
338.15 K	0.00897	0.013	0.0146	0.0105	0.0133	0.00899	0.598	0.000202

— BigSolDB 2.1
